Activity calls are given as the source filed them. The rule behind the calls is not given here.
Tests used:
[1] = Binding affinity to FAM-TWJ-S1/TWJ-S2/TAMRA-TWJ-S3 DNA (unknown origin) assessed as normalized FAM intensity at 1 uM measured at 5 mins interval for 1 hr by fluorescence assay relative to control
[2] = Binding affinity to FAM-TWJ-TAMRA DNA (unknown origin) assessed as change in melting temperature at 1 uM after 30 mins by FRET assay
[3] = Binding affinity to FAM-TWJ-S1 DNA (unknown origin) assessed as normalized FAM intensity at 1 uM measured at 5 mins interval for 1 hr by fluorescence assay relative to control
[4] = Selectivity ratio of compound effect for binding affinity to FAM-TWJ-TAMRA DNA (unknown origin) assessed as change in melting temperature at 1 uM in absence of 10 uM ds26 DNA to compound effect for binding affinity to FAM-TWJ-TAMRA DNA (unknown origin) assessed as change in melting temperature at 1 uM in presence of 10 uM ds26 DNA
[5] = Binding affinity to FAM-TWJ-TAMRA DNA (unknown origin) assessed as change in melting temperature at 1 uM after 30 mins in presence of 3 uM ds26 DNA by FRET assay
[6] = Binding affinity to FAM-TWJ-TAMRA DNA (unknown origin) assessed as change in melting temperature at 1 uM after 30 mins in presence of 10 uM ds26 DNA by FRET assay
[7] = Binding affinity to TWJ-S1/TWJ-S2/TWJ-S3 DNA (unknown origin) assessed as compound-DNA complex formation at 30 uM measured after 1 hr by sybrgold-staining based PAGE analysis
[8] = Selectivity ratio of Kapp for TWJ DNA (unknown origin) to Kapp for ds17 DNA by equilibrium dialysis method (unknown origin)
[9] = Binding affinity to ds17 DNA measured after 24 hrs by equilibrium dialysis method
[10] = Cytotoxicity against human hTERT-BJ cells assessed as reduction in cell viability measured after 72 hrs by SRB assay; format: cell-based; settings: read-out: LD50
[11] = Binding affinity to TWJ DNA (unknown origin) assessed as equilibrium binding constant at 1:2 DNA to compound ratio after 1 hr by ESI-MS analysis
MCF7 [12] = experiment: Induction of DNA damage in human MCF7 cells assessed as gammaH2AX accumulation at 10 times antiproliferative LD50 measured after 72 hrs by DAPI staining-based confocal laser scanning microscopic analysis; format: functional, cell-based
[13] = Selectivity index, ratio of LD50 for human hTERT-BJ cells to LD50 for human MDA-MB-231 cells; format: toxicity; settings: hTERT-BJ cells versus MDA-MB-231 cells, read-out: Selectivity Index
[14] = Selectivity ratio of K for TWJ DNA (unknown origin) to K for ds17 DNA (unknown origin)
[15] = Selectivity index, ratio of LD50 for human hTERT-BJ cells to LD50 for human MCF7 cells; format: toxicity; settings: hTERT-BJ cells versus MCF7 cells, read-out: Selectivity Index
[16] = Binding affinity to FAM-TWJ-S1/TWJ-S2/TWJ-S3 DNA (unknown origin) assessed as compound-DNA complex formation at 12 uM measured after 1 hr in presence of ds12 DNA by sybrgold-staining based PAGE analysis
[17] = Binding affinity to ds17 DNA (unknown origin) assessed as equilibrium binding constant at 1:2 DNA to compound ratio after 1 hr by ESI-MS analysis
[18] = Binding affinity to ds17 DNA (unknown origin) assessed as equilibrium binding constant at 1:3 DNA to compound ratio after 1 hr by ESI-MS analysis
[19] = Binding affinity to TWJ DNA (unknown origin) measured after 24 hrs by equilibrium dialysis method
MDA-MB-231 = experiment: Antiproliferative activity against human MDA-MB-231 cells assessed as reduction in cell viability measured after 72 hrs by SRB assay; format: functional; settings: MDA-MB-231, 72 h, read-out: LD50 (the source's name)
MCF7 [20] = experiment: Antiproliferative activity against human MCF7 cells assessed as reduction in cell viability measured after 72 hrs by SRB assay; format: functional; settings: MCF7, 72 h, read-out: LD50 (the source's name)

| Ratio [1] [%] | ΔTm [2] [°C] | Ratio [3] [%] | Activity [7] | SMILES | Selectivity ratio [4] [%] | ΔTm [5] [°C] | ΔTm [6] [°C] | other results |
| --- | --- | --- | --- | --- | --- | --- | --- | --- |
| 72 | 11 | 27 | – | COCCOCCOCC[n+]1ccc(-c2c3nc(c(-c4cc[n+](CCOCCOCCOC)cc4)c4ccc([nH]4)c(-c4cc[n+](CCOCCOCCOC)cc4)c4nc(c(-c5cc[n+](CCOCCOCCOC)cc5)c5ccc2[nH]5)C=C4)C=C3)cc1 | 36 | 7 | 4 | – |
| 22 | 1.5 | 101 | inactive | Cn1c[n+](-c2ccc3ccc4cccc5ccc2c3c45)cn1 | – | – | – | – |
| 27 | 0.6 | 100 | inactive | CN(C)CCCNCC12c3ccccc3C(CNCCCN(C)C)(c3ccccc31)c1ccccc12 | – | – | – | – |
| 46 | 4.2 | 37 | Active | c1cc2ccc3cc2cc1CNCCNCCNCc1ccc2ccc(cc2c1)CNCCNCCNC3 | – | < 5 | – | – |
| 23 | 0 | 100 | inactive | c1cc2ccc3ccc(-[n+]4csc5ccccc54)c4ccc(c1)c2c34 | – | – | – | – |
| 63 | 0.8 | 40 | inactive | NCCCNC[C@]12c3ccccc3[C@](CNCCCN)(c3ccccc31)c1cc3ccccc3cc12 | – | – | – | – |
| 35 | 11.6 | 80 | – | c1cc2c3nc4c(cccc4cc3c1)CNCCOCCNCc1cccc3cc4cccc(c4nc13)CNCCOCCNC2 | 39 | 5.5 | 4.6 | – |

| SMILES | Ratio [1] [%] | ΔTm [2] [°C] | Ratio [3] [%] | Activity [7] | Selectivity ratio [4] [%] | ΔTm [5] [°C] | ΔTm [6] [°C] | other results |
| --- | --- | --- | --- | --- | --- | --- | --- | --- |
| c1cc2cc(c1)-c1cccc(c1)CNCCN1CCNCc3cccc(c3)-c3cccc(c3)CNCCN(CCNC2)CCNCc2cccc(c2)-c2cccc(c2)CNCC1 | 33 | 17.5 | 109 | Active | 91 | 16.6 | 15.9 | Selectivity ratio [8]: > 2; Kapp [9]: 4.7 ×10⁴ /M; CC50 at 72 h [10]: 2600 nM; K [11]: 3.9 ×10⁶ /M; Activity (MCF7 [12]): Active; selectivity ratio [13]: 2; Selectivity ratio [14]: > 2; selectivity ratio [15]: 2; Activity [16]: Active; K [17]: inactive; K [18]: 7.5 ×10³ /M; Kapp [19]: 6 ×10⁶ /M; CC50 (MDA-MB-231): 1300 nM; CC50 (MCF7 [20]): 100 nM |
| C[n+]1ccc(-c2c3nc(c(-c4cc[n+](C)cc4)c4ccc([nH]4)c(-c4cc[n+](C)cc4)c4ccc([nH]4)c(-c4cc[n+](C)cc4)c4nc2C=C4)C=C3)cc1 | 86 | 22.5 | 8 | – | 35 | 12 | 8 | – |
| c1cc2nc3ccc4cc3cc2cc1CNCCOCCNCc1ccc2nc3ccc(cc3cc2c1)CNCCOCCNC4 | 54 | 23 | 27 | – | 84 | 20.4 | 17.1 | Selectivity ratio [8]: > 1; Kapp [9]: 3.8 ×10⁵ /M; CC50 at 72 h [10]: 1000 nM; K [11]: 1.9 ×10⁹ /M; Selectivity ratio [14]: > 4; K [17]: 3.1 ×10⁴ /M; Kapp [19]: 1.4 ×10⁷ /M; CC50 (MDA-MB-231): 2800 nM; CC50 (MCF7 [20]): 4800 nM |
| c1cc2c3cccc(c3c1)CNCCOCCNCc1cccc3c(cccc13)CNCCOCCNC2 | 42 | 10.4 | 118 | Active | 82 | 8.9 | 8.5 | Selectivity ratio [8]: > 1; Kapp [9]: 5.9 ×10⁵ /M; CC50 at 72 h [10]: 40 nM; K [11]: 4.7 ×10⁷ /M; Selectivity ratio [14]: > 2; K [17]: 7.5 ×10⁴ /M; Kapp [19]: 8.7 ×10⁶ /M; CC50 (MDA-MB-231): 160 nM; CC50 (MCF7 [20]): 1300 nM |
